In patent US8501946B2 (Glaxo Group Limited, priority 2009, dated 2013):

Biological target: T1, human recombinant P2X7 receptors (Homo sapiens, UniProt Q99572)
T1 construct: expressed in transfected cells
T1 sequence (Q99572 1-595): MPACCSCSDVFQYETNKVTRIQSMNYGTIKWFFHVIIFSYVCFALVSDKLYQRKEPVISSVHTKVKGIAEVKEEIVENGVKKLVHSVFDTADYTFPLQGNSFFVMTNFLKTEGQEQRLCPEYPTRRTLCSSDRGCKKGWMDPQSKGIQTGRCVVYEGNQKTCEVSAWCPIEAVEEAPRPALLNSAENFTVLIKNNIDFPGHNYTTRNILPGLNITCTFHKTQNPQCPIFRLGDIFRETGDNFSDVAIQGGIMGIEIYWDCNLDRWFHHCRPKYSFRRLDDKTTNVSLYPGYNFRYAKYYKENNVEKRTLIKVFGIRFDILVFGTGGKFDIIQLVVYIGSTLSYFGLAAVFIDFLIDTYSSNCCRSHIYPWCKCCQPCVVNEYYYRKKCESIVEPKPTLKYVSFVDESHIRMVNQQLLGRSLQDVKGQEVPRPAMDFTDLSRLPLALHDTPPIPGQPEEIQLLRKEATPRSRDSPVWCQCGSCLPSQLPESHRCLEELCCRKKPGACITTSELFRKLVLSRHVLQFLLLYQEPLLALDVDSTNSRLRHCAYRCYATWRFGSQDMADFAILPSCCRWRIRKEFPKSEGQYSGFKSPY
Test: Ethidium Accumulation Assay 1 (HEK293 cells, ATP-induced ethidium uptake)
Assay type: cell-based
Details: HEK293 cells expressing human P2X7; 1 mM ATP; sometimes mean of more than one measurement; read-out: Assay 1 (antagonist pIC50 for blocking ATP responses) (converted)

Row | IC50 | Compound
1 | < 100 nM | Cn1nccc1-c1nnc2n1CCN(C(=O)c1cccc(C(F)(F)F)c1Cl)C2 [Example 68, 7-{[2-chloro-3-(trifluoromethyl)phenyl]carbonyl}-3-(1-methyl-1H-pyrazol-5-yl)-5,6,7,8-tetrahydro[1,2,4]triazolo [4,3-a]pyrazine]
2 | < 501 nM | O=C(c1ccc(F)cc1Cl)N1CCn2c(nnc2-c2cccc3cccnc23)C1 [Example 129, 8-{7-[(2-chloro-4-fluorophenyl)carbonyl]-5,6,7,8-tetrahydro[1,2,4]triazolo[4,3-a]pyrazin-3-yl}quinoline]
3 | < 10 nM | O=C(c1ccc(F)c(Cl)c1Cl)N1CCn2c(nnc2-c2cnccn2)C1 [Example 113, 7-[(2,3-Dichloro-4-fluorophenyl)carbonyl]-3-(2-pyrazinyl)-5,6,7,8-tetrahydro[1,2,4]triazolo[4,3-a]pyrazine]
4 | < 10 nM | O=C(c1cccc(Cl)c1Cl)N1CCn2c(nnc2-c2ccncn2)C1 [Example 62, 7-[(2,3-dichlorophenyl)carbonyl]-3-(4-pyrimdiinyl)-5,6,7,8-tetrahydro[1,2,4]triazolo [4,3-a]pyrazine]
5 | < 501 nM | O=C(c1ccc(F)cc1Cl)N1CCn2c(nnc2-c2cccnn2)C1 [Example 59, 7-[(2-chloro-4-fluorophenyl)carbonyl]-3-(3-pyridazinyl)-5,6,7,8-tetrahydro[1,2,]triazolo [4,3-a]pyrazine]
6 | < 100 nM | O=C(c1ccc(F)cc1Cl)N1CCn2c(nnc2-c2cccnc2)C1 [Example 39, 7-[(2-chloro-4-fluorophenyl)carbonyl]-3-(3-pyridinyl)-5,6,7,8-tetrahydro[1,2,4]triazolo [4,3-a]pyrazine]
7 | < 100 nM | COCCc1nnc2n1CCN(C(=O)c1cccc(C(F)(F)F)c1Cl)C2 [Example 137, 7-{[2-chloro-3-(trifluoromethyl)phenyl]carbonyl}-3-[2-(methyloxy)ethyl]-5,6,7,8-tetrahydro[1,2,4]triazolo[4,3-a]pyrazine]
8 | < 100 nM | O=C(c1ccc(F)cc1C(F)(F)F)N1CCn2c(nnc2-c2ccccn2)C1 [Example 94, 7-{[4-fluoro-2-(trifluoromethyl)phenyl]carbonyl}-3-(2-pyridinyl)-5,6,7,8-tetrahydro[1,2,4]triazolo [4,3-a]pyrazine]
9 | < 100 nM | O=C(c1ccc(Cl)cc1Cl)N1CCn2c(nnc2-c2ncccc2F)C1 [Example 93]
10 | < 501 nM | Cc1ccc(C(=O)N2CCn3c(nnc3-c3cnccn3)C2)c(C)c1 [Example 143, 7-[(2,4-dimethylphenyl)carbonyl]-3-(2-pyrazinyl)-5,6,7,8-tetrahydro[1,2,4]triazolo[4,3-a]pyrazine]
11 | < 10 nM | O=C(c1cccc(C(F)(F)F)c1Cl)N1CCn2c(nnc2-c2ccco2)C1 [Example 77, 7-{[2-chloro-3-(trifluoromethyl)phenyl]carbonyl}-3-(2-furanyl)-5,6,7,8-tetrahydro[1,2,4]triazolo[4,3-a]pyrazine]
12 | < 10 nM | O=C(c1cccc(Cl)c1Cl)N1CCn2c(nnc2-c2ccc(F)cn2)C1 [Example 54, 7-[(2,3-dichlorophenyl)carbonyl]-3-(5-fluoro-2-pyridinyl)-5,6,7,8-tetrahydro[1,2,4]triazolo [4,3-a]pyrazine]
13 | < 100 nM | COc1nnc2n1CCN(C(=O)c1cccc(C(F)(F)F)c1Cl)C2 [Example 17, 7-{[2-Chloro-3-(trifluoromethyl)phenyl]carbonyl}-3-(methyloxy)-5,6,7,8-tetrahydro[1,2,4]triazolo[4,3-a]pyrazine]
14 | < 501 nM | O=C(c1cccc(C(F)(F)F)c1Cl)N1CCn2c(nnc2N2CCOCC2)C1 [Example 18, 7-{[2-Chloro-3-(trifluoromethyl)phenyl]carbonyl}-3-(4-morpholinyl)-5,6,7,8-tetrahydro[1,2,4]triazolo[4,3-a]pyrazine]
15 | < 100 nM | O=C(c1cccc(Cl)c1Cl)N1CCn2c(nnc2-c2cccc(F)n2)C1 [Example 55, 7-[(2,3-dichlorophenyl)carbonyl]-3-(6-fluoro-2-pyridinyl)-5,6,7,8-tetrahydro[1,2,4]triazolo [4,3-a]pyrazine]
16 | < 100 nM | Cc1cccnc1-c1nnc2n1CCN(C(=O)c1cccc(Cl)c1Cl)C2 [Example 66, 7-[(2,3-dichlorophenyl)carbonyl]-3-(3-methyl-2-pyridinyl)-5,6,7,8-tetrahydro[1,2,4]triazolo [4,3-a]pyrazine]
17 | < 10 nM | O=C(c1cccc(C(F)(F)F)c1Cl)N1CCn2c(nnc2-c2ccccc2)C1 [Example 13, 7-{[2-Chloro-3-(trifluoromethyl)phenyl]carbonyl}-3-phenyl-5,6,7,8-tetrahydro[1,2,4]triazolo[4,3-a]pyrazine]

Row | IC50 | Compound
18 | < 100 nM | Cn1ccc(-c2nnc3n2CCN(C(=O)c2ccc(F)cc2Cl)C3)n1 [Example 72, 7-[(2-chloro-4-fluorophenyl)carbonyl]-3-(1-methyl-1H-pyrazol-3-yl)-5,6,7,8-tetrahydro[1,2,4]triazolo [4,3-a]pyrazine]
19 | < 100 nM | O=C(c1ccc(Cl)c(F)c1Cl)N1CCn2c(nnc2-c2ccncn2)C1 [Example 112, 7-[(2,4-Dichloro-3-fluorophenyl)carbonyl]-3-(4-pyrimidinyl)-5,6,7,8-tetrahydro[1,2,4]triazolo[4,3-a]pyrazine]
20 | < 100 nM | O=C(c1cccc(C(F)(F)F)c1Cl)N1CCn2c(nnc2-c2ccncc2)C1 [Example 10, 7-{[2-Chloro-3-(trifluoromethyl)phenyl]carbonyl}-3-(4-pyridinyl)-5,6,7,8-tetrahydro[1,2,4]triazolo[4,3-a]pyrazine]
21 | < 100 nM | O=C(c1ccc(Cl)cc1Cl)N1CCn2c(nnc2-c2ccc(F)cn2)C1 [Example 95, 7-[(2,4-dichlorophenyl)carbonyl]-3-(5-fluoro-2-pyridinyl)-5,6,7,8-tetrahydro[1,2,4]triazolo [4,3-a]pyrazine]
22 | < 10 nM | O=C(c1ccc(F)cc1Cl)N1CCn2c(nnc2-c2cscn2)C1 [Example 90, 7-[(2-chloro-4-fluorophenyl)carbonyl]-3-(1,3-thiazol-4-yl)-5,6,7,8-tetrahydro[1,2,4]triazolo [4,3-a]pyrazine]
23 | < 100 nM | O=C(c1cccc(C(F)(F)F)c1Cl)N1CCn2c(nnc2C2CCCCC2)C1 [Example 135, 7-{[2-chloro-3-(trifluoromethyl)phenyl]carbonyl}-3-cyclohexyl-5,6,7,8-tetrahydro[1,2,4]triazolo[4,3-a]pyrazine]
24 | < 10 nM | Cc1ccnc(-c2nnc3n2CCN(C(=O)c2cccc(C(F)(F)F)c2Cl)C3)c1 [Example 56, 7-{[2-chloro-3-(trifluoromethyl)phenyl]carbonyl}-3-(4-methyl-2-pyridinyl)-5,6,7,8-tetrahydro[1,2,4]triazolo [4,3-a]pyrazine]
25 | < 100 nM | CN(C)c1nnc2n1CCN(C(=O)c1cccc(C(F)(F)F)c1Cl)C2 [Example 20, 7-{[2-chloro-3-(trifluoromethyl)phenyl]carbonyl}-N,N-dimethyl-5,6,7,8-tetrahydro[1,2,4]triazolo [4,3-a]pyrazine-3-amine]
26 | < 501 nM | O=C(c1ccc(F)cc1Cl)N1CCn2c(nnc2-c2cnc(Cl)cn2)C1 [Example 141, 7-[(2-Chloro-4-fluorophenyl)carbonyl]-3-(5-chloro-2-pyrazinyl)-5,6,7,8-tetrahydro[1,2,4]triazolo[4,3-a]pyrazine]
27 | < 10 nM | O=C(c1ccc(Cl)cc1F)N1CCn2c(nnc2-c2cnccn2)C1 [Example 106, 7-[(4-chloro-2-fluorophenyl)carbonyl]-3-(2-pyrazinyl)-5,6,7,8-tetrahydro[1,2,4]triazolo [4,3-a]pyrazine]
28 | < 100 nM | COc1cccc(-c2nnc3n2CCN(C(=O)c2ccc(F)cc2Cl)C3)c1 [Example 125, 7-[(2-chloro-4-fluorophenyl)carbonyl]-3-[3-(methyloxy)phenyl]-5,6,7,8-tetrahydro[1,2,4]triazolo[4,3-a]pyrazine]
29 | < 10 nM | O=C(c1ccc(Cl)c(F)c1Cl)N1CCn2c(nnc2-c2ccc(F)cn2)C1 [Example 110, 7-[(2,4-Dichloro-3-fluorophenyl)carbonyl]-3-(5-fluoro-2-pyridinyl)-5,6,7,8-tetrahydro[1,2,4]triazolo[4,3-a]pyrazine]
30 | < 100 nM | O=C(c1ccccc1Cl)N1CCn2c(nnc2-c2ccc(F)cc2)C1 [Example 119, 7-[(2-chlorophenyl)carbonyl]-3-(4-fluorophenyl)-5,6,7,8-tetrahydro[1,2,4]triazolo[4,3-a]pyrazine]
31 | < 100 nM | Cn1cccc1-c1nnc2n1CCN(C(=O)c1cccc(Cl)c1Cl)C2 [Example 48, 7-[(2,3-dichlorophenyl)carbonyl]-3-(1-methyl-1H-pyrrol-2-yl)-5,6,7,8-tetrahydro[1,2,4]triazolo [4,3-a]pyrazine]
32 | < 501 nM | Cc1nc(-c2nnc3n2CCN(C(=O)c2ccc(F)cc2Cl)C3)cs1 [Example 136, 7-[(2-chloro-4-fluorophenyl)carbonyl]-3-(2-methyl-1,3-thiazol-4-yl)-5,6,7,8-tetrahydro[1,2,4]triazolo[4,3-a]pyrazine]
33 | < 501 nM | O=C(c1ccc(Cl)cc1Cl)N1CCn2c(Br)nnc2C1 [Example 7, 3-bromo-7-[(2,4-dichlorophenyl)carbonyl]-5,6,7,8-tetrahydro[1,2,4]triazolo [4,3-a]pyrazine]
